The data set in a line: clinical. In kind it is in vivo. The note with it: for concentration at 2 h: human, plasma, oral, post dose (2 h). As for the experimental part:
The pharmacokinetics (PK) and pharmacodynamics of the 60 mg bid dose had not previously been studied. […] 180 patients who had received >4 weeks of study medication had blood sampling in the morning pre-maintenance dose and again 2 h post-dose. All patients were receiving aspirin. […] Well-known VerifyNow® P2Y12 assay and light transmittance aggregometry (LTA; ADP 20 uM) were performed. Groups were compared using Kruskal-Wallis test with significance attached to P<0.01 to allow for multiple group comparisons.

Data on one compound can be found in patent US10300065B2, “Method of treating or prevention of atherothrombotic events in patients with history of myocardial infarction” (ASTRAZENECA AB, priority 2015, dated 2019).

Turning to `CCCSc1nc(N[C@@H]2C[C@H]2c2ccc(F)c(F)c2)c2nnn([C@@H]3C[C@H](OCCO)[C@@H](O)[C@H]3O)c2n1` [Ticagrelor, (1S,2S,3R,5S)-3-[7-{[(1R,2S)-2-(3,4-difluorophenyl)cyclopropyl]amino}-5-(propylthio)-3H-[1,2,3]-triazolo[4,5-d]pyrimidin-3-yl]-5-(2-hydroxyethoxy)cyclopentane-1,2-diol], where the note is “60 mg vs 90 mg”, the “plasma ticagrelor levels lower with 60 mg vs 90 mg” value is “approximately ⅓”. Also, the concentration at 2 h by setting is: (60 mg bid) 448 ng/mL; (90 mg bid) 717 ng/mL.
